Test results from paper PMC8171062, “Crystallographic fragment screening-based study of a novel FAD-dependent oxidoreductase from Chaetomium thermophilum” (Acta Crystallographica. Section D, Structural Biology, 2021).

Legend:
Experiment in all cases: X-ray crystal structure, […] A, soaking
Type in all cases: binding
[1] = molecular target: T1, CtFDO (CtFDOdegl) (Thermochaetoides thermophila, UniProt G0SAW6); settings: crystals at pH 5.5; catalytic site; occupancy 1.0; formic acid in S1
T1 construct: gene CTHT_0048040; secreted from Aspergillus oryzae, no tag mentioned; signal peptide (21), next 20 N-terminal and 8 C-terminal residues absent; 595 residues by LC-MS/MS; endoglycosidase F1 deglycosylated; about 68 kDa; monomer
T1 sequence (G0SAW6 entry or part of it): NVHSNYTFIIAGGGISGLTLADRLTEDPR
T1 sequence (G0SAW6 entry or part of it): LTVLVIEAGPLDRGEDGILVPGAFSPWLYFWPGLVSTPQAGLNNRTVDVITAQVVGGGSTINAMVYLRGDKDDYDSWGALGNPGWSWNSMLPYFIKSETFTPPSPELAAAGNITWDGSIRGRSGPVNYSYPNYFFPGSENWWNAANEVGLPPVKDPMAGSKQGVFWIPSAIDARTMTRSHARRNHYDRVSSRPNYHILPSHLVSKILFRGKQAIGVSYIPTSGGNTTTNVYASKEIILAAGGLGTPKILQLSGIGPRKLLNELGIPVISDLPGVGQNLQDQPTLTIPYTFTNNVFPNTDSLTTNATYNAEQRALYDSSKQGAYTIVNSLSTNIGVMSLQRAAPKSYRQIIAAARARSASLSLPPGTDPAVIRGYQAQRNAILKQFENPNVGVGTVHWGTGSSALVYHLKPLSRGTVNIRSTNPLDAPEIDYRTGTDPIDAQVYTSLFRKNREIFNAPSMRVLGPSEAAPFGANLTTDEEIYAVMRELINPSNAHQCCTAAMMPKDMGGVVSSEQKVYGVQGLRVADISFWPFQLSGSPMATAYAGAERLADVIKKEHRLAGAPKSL

[2] = molecular target: T1, CtFDO (CtFDOdegl); settings: 20 mM MgCl2; two molecules per chain, subsites S1 and S3; occupancy 0.7-0.8; formic acid in catalytic site
[3] = molecular target: T1, CtFDO (CtFDOdegl); settings: crystals at pH 5.5; thiophene in subsite S2, aliphatic moiety in catalytic site; occupancy 0.9; formic acid in S1

## COC(=O)c1ccc(CN)cc1 [MAMB, methyl-4-(aminomethyl)benzoate]
[1]
  X-ray crystal structure, 2.22 A, soaking: CtFDOdegl binds one MAMB molecule in the CS

## O=[N+]([O-])c1ccc(O)c(O)c1 [4NC, 4-nitrocatechol]
[2]
  X-ray crystal structure, 1.26 A, soaking: both CtFDOdegl chains bind two molecules of 4NC

## C[C@H](NC(=O)CCC(=O)c1cccs1)c1cccnc1 [PESB, 4-oxo-N-[(1S)-1-(pyridin-3-yl)ethyl]-4-(thiophen-2-yl)butanamide]
[3]
  X-ray crystal structure, 1.60 A, soaking: each protein chain binds one PESB molecule
